# Values quoted from earlier work in US20050214224A1, “Lipid formulations for spontaneous drug encapsulation” (Nektar Therapeutics, priority 2003, published 2005).
# Conditions: hydrated state; lipid excipient
row,Compound,hydrated liquid transition temperature
1,"CCCCCCCCCCCCCC(=O)OC[C@H](COP(=O)([O-])OCC[N+](C)(C)C)OC(=O)CCCCCCCCCCCCC [DMPC, dimyristoylphosphatidylcholine]",23.5 °C
2,"CCCCCCCCCCCCCCCC(=O)OC[C@H](COP(=O)([O-])OCC[N+](C)(C)C)OC(=O)CCCCCCCCCCCCCCC [DPPC, dipalmitoylphosphatidylcholine]",42 °C
